The values that follow come from patent US20170028005A1, “NATURAL SWEETENER” (NATGOOD IP, LLC, priority 2014, published 2017).

Molecules are shown by their SMILES.

In data set [1] the test system is blood glucose response. Description: A Repression Test. Details: key: PASS: pass the repression test when then blood glucose response is much lower than expected for the combination of. Conditions: product (e.g. cupcake) with other nutritive carbohydrates. The format is in vivo.
Method: Under controlled study scenario subjects fast, then consume a product (e.g. a cupcake) that contains other nutritive carbohydrates and the glycemic response is assessed by established methods. The glycemic response to the nutritive carbohydrates is compared to the glycemic response to the nutritive carbohydrates in the presence of the sweetener or sugar.
Data set [2] deals with blood glucose response. Description: A Glycemic Response Test. Type of data set: in vivo. The conditions noted are these: 30 grams in water after fast; blood glucose every 15 minutes for 90 minutes.
Method: Under an Institutional Review Board approved, controlled clinical trial, subjects undergo a pre-test fast for at least 20 hours and then consume 30 grams of glucose, or an equal amount of sweetener in water. Blood glucose measurements are then made every 15 minutes for 90 minutes and the blood glucose response is recorded. A sweetener is considered to pass the test when then blood glucose response is less than 5% of glucose.
The subject of data set [3] is blood glucose level. The conditions noted are these: values used for the expected GI; cited from earlier work.
The next data set is described as follows: The Caramelization Test. Type of data set: physicochemical. Conditions: 1 cup sweetener with 1/2 cup water until it browns. An excerpt: 1 cup of caramelized sugar or 1 cup of sweetener is mixed with ½ cup of water and swirled to mix until it browns. A sweetener is considered to pass the test and be enough like sugar when it browns within 25% of the time when the sugar browns.

In data set [4] the test system is blood glucose level. Description: Glycemic index (GI) of NSC formulations (Example 2). Type of data set: in vivo, human. As for the experimental part:
Glycemic index can be measured by any suitable methodology. For example, to determine a food's GI value, measured portions of the food containing 50 grams of available carbohydrate (or 25 grams of available carbohydrate for foods that contain lower amounts of carbohydrate) may be fed to 10 healthy people after an overnight fast. Finger-prick blood samples can be taken at 15-30 minute intervals over the next two hours. These blood samples can be used to construct a blood sugar response curve for the two hour period. The incremental area under the curve (iAUC) is calculated to reflect the total rise in blood glucose levels after eating the test food. The GI value is calculated by dividing the iAUC for the test food by the iAUC for the reference food (same amount of glucose) and multiplying by 100. The average of the GI ratings from all ten subjects is designated as the GI for that food. […] The effect on the GI response for different NSC formulations was assessed. Four formulations, designated F1-F4, containing tagatose, monkfruit, stevia extract, erythritol, xanthan gum and either maltitol or lactitol were prepared as indicated in Table 1. The glycemic index for each formulation was calculated based on the glycemic index for the individual components taking into account the weight percent of the component in the formulation. Monkfruit, xanthan gum, and stevia extract have a glycemic index of 0, erythritol has a glycemic index of 1 while tagatose has a glycemic index of 3. Maltitol has a glycemic index of 35 while lactitol has a glycemic index of 5. Fifteen subjects were evaluated and the GI calculated as described previously herein.

Data set [5] is described as follows: Acute randomized controlled trial: adverse events symptom score. Type of data set: in vivo, human. As for the experimental part: An acute randomized controlled trial was carried out to investigate the effects of an NSC of the type disclosed herein on postprandial insulin, glucose and fructose responses.
Subjects (N=15) men and non-pregnant, non-lactating women, 18-75 years of age each with a BMI of 18-40 kg/m^2 inclusive and normal glycemia and (i) fasting serum glucose <126 mg/dl (<7.0 mmol/l) (or in whole blood ≦6.1 mmol/L); (ii) blood pressure <130/85; (iii) no prescription drugs within 1 month of the first study visit after screening except for the birth control pill, lipid lowering medications or small doses of anxiolytics/sedatives to assist sleeping; and (iv) no major illness or surgery requiring hospitalization within 3 months of the first study visit after screening.
The test foods consisted of 2 isovolumetric beverages: 30 g sucrose control and 30 g of sweetener blend dissolved in 500 ml water. The sucrose test meal acted as the control. Test meals were administered in a randomized order.
Adverse events reported following ingestion of the meals containing either an NSC of the type disclosed herein or sucrose included bloating, belching, nausea, diarrhea and flatulence. Each issue was scored and record for the time period indicated in Table 5 which provides the symptom score (mm) for: Bloating, Belching, Nausea, Diarrhea and Flatulence at 0 min, 120 min, before Dinner (D) and before breakfast (B).

As for `O=C(CO)C(O)C(O)C(O)CO` (stereo not shown) [Allulose], in the data set on blood glucose response [1], the Repression test result is recorded as “PASS”. In addition, the Glycemic test entry in the data set on blood glucose response [2] is recorded as “PASS (pass the test when then blood glucose response is less than 5% of glucose)”.

`OC[C@@H](O)[C@@H](O)CO` [Erythritol, erythritol]: the “glycemic index of individual component” value in the data set with blood glucose level [3] is 1. Besides, the Repression test entry with blood glucose response [1] is reported as “FAIL”. Moreover, the Glycemic test entry in the data set with blood glucose response [2] is “PASS (pass the test when then blood glucose response is less than 5% of glucose)”.

For `OC[C@@H](O)[C@@H](O[C@H]1O[C@H](CO)[C@@H](O)[C@H](O)[C@H]1O)[C@H](O)[C@@H](O)CO` [Maltitol, maltitol], the “glycemic index of individual component” value in the data set with blood glucose level [3] was 35.

With `OC[C@H]1O[C@@](CO)(O[C@H]2O[C@H](CO)[C@@H](O)[C@H](O)[C@H]2O)[C@@H](O)[C@@H]1O` [Sugar, sucrose], the Caramelization test entry in the data set “The Caramelization Test” is “PASS (pass the test and be enough like sugar when it browns within 25% of the time when the sugar browns)”. In addition, the “Expected GI” value in the data set on blood glucose level [4] (calculated from GI of individual components and their weight percent) is 65. Besides, the “Observed GI” value in the data set with blood glucose level [4] (fifteen subjects) came to 65. Besides, the “Glycemic Index” value in the data set with blood glucose level [4] (sweetener ingredient of the cake mix, Table 2) was found to be 65 for sugar. Further, the Repression test entry with blood glucose response [1] is given as “FAIL”. In data set [5] (0 min), this compound returned a Belching symptom score of 0.60 mm, a Bloating symptom score of 7.93 mm, a Diarrhea symptom score of 0.27 mm and a Flatulence symptom score of 1.47 mm. Further, the Nausea symptom score in data set [5] (0 min) was 0.33 mm. In data set [5] (120 min), this compound returned a Belching symptom score of 0.40 mm, a Bloating symptom score of 4.67 mm, a Diarrhea symptom score of 0.80 mm and a Flatulence symptom score of 1.40 mm. In data set [5] (120 min), this compound returned a Nausea symptom score of 1.87 mm. In data set [5] (before Dinner (D)), this compound displayed a Belching symptom score of 1.79 mm, a Bloating symptom score of 5.43 mm, a Diarrhea symptom score of 6.93 mm and a Flatulence symptom score of 8.93 mm. Besides, in data set [5] (before Dinner (D)), the Nausea symptom score was 2.57 mm. In data set [5] (before breakfast (B)), this compound showed a Belching symptom score of 0.57 mm, a Bloating symptom score of 5.71 mm, a Diarrhea symptom score of 5.79 mm and a Flatulence symptom score of 7.50 mm. The Nausea symptom score in data set [5] (before breakfast (B)) came to 0.57 mm. Moreover, in the data set on blood glucose response [2], the Glycemic test entry is “FAIL”.

Turning to `O=C(CO)[C@@H](O)[C@@H](O)[C@H](O)CO` [Tagatose, (3S,4S,5R)-1,3,4,5,6-pentahydroxy-hexan-2-one], the Caramelization test entry in the data set “The Caramelization Test” is “FAIL-”. Besides, in the data set on blood glucose level [3], the “glycemic index of individual component” value is given as 3. Further, the Repression test entry in the data set on blood glucose response [1] is recorded as “FAIL”. Further, the Glycemic test result with blood glucose response [2] was “PASS (pass the test when then blood glucose response is less than 5% of glucose)”.

On to `OC[C@@H](O)[C@@H](O[C@@H]1O[C@H](CO)[C@H](O)[C@H](O)[C@H]1O)[C@H](O)[C@@H](O)CO` [lactitol], for which, in the data set with blood glucose level [3], the “glycemic index of individual component” value is 5.
